From patent US10874687B1 (Atea Pharmaceuticals, Inc., priority 2020, dated 2020)
Values joined by “and” are separate entries in the source; they are usually repeats but may differ in a detail not shown here. Equal entries are not always repeated. Where two headings read alike, the source gives them in different places. Marks after values point to notes of the source that are not given here.

Experiments:
[1] = Plasma PK of metabolites in non-human primates after oral Compound 2A; conditions: cynomolgus, cynomolgus monkey, in vivo, 30 mg/kg
HCoV = assay: Protection of MES-1 cells from virus-induced cytopathogenicity (MTT); assay type: cell-based; conditions: unidentified human coronavirus, 72 h, 50% protection of MES-1 cells, day 3 post-infection
Experimental: (§1) After a 3-day incubation at 37° C. cell viability was determined by the MTT method as described by Pauwels et al. (J. Virol. Methods 1988, 20, 309-321).

HCoV-229E [2] = assay: microbe, parasite or virus in culture; assay type: cell-based, human coronavirus alpha-229E
HCoV-229E [3] = conditions: HCoV-229E in MRC-5 cells; cited from earlier work
HCoV-OC43 [4] = assay: microbe, parasite or virus in culture; assay type: cell-based, human coronavirus beta-OC43; conditions: Betacoronavirus 1, OC43, Huh-7, read-out: VYR EC90
Huh-7 cells = conditions: human
[5] = Cytotoxicity in mock infected MES-1 cells (MTT); assay type: cell-based; conditions: Table 3A
Experimental: (§2) To determine the cytotoxicity, cells were seeded at an initial density of 1×10^6 cells/mL in 96 well plates containing Minimum Essential Medium with Earles's salts (MEM-E), L-glutamine, 1 mM sodium pyruvate and 25 mg/L kanamycin, supplemented with 10% fetal bovine serum. Cell cultures were then incubated at 37° C. in a humidified 5% CO2 atmosphere in the absence or presence of serial dilutions of test compounds. Cell viability was determined by the MTT method.

[6] = test system: mock infected MES-1 cells; assay: Cytotoxicity in mock infected MES-1 cells (MTT); assay type: cell-based; conditions: 3 days, Table 3B
Experimental: as §2

HCoV-OC43 [7] = assay: microbe, parasite or virus in culture; assay type: cell-based, human coronavirus beta-OC43
SARS-CoV-2 (WA1) = assay: microbe, parasite or virus in culture; assay type: cell-based
[8] = Cytotoxicity in mock infected BHK-21 cells (MTT); assay type: cell-based, hamster; conditions: hamster
Experimental: as §2
(§3) BHK-21 cells: Test compounds were dissolved in DMSO at 100 mM and then diluted in Minimum Essential Medium with Earle's salts (MEM-E) containing 1 mM sodium pyruvate and 25 μg/mL kanamycin, supplemented with 10% FBS (growth medium) to final concentrations of 100, 20, 4 and 0.8 μM (two 24-well replica plates each). After BHK-21 cells were grown to confluency in 96-well plates, growth medium was replaced with fresh maintenance medium (growth medium with 1% inactivated FBS in place of 10% FBS) containing serially diluted test compound and HCoV-229E at a multiplicity of infection (MOI) of 0.01. Uninfected cells in the presence of serially diluted compound were used to assess the cytotoxicity of compounds. After a 3-day incubation at 37° C. in a humidified 5% CO2 atmosphere, cell viability was determined by the MTT method (Pauwels, R et al. J. Virol. Methods 20(4):309-321 (1988)).

mock infected BHK cells = assay: Cytotoxicity in mock infected BHK-21 cells (MTT); assay type: cell-based, hamster; conditions: mock infected BHK cells; MTT; 3 days; Table 2B
Experimental: as §2, §3

in vitro [9] = conditions: human
MERS-CoV (EMC) = assay: microbe, parasite or virus in culture; assay type: cell-based
SARS-CoV (Urbani) = assay: microbe, parasite or virus in culture; assay type: cell-based, SARS-CoV-1
HCoV-229E [10] = assay: Protection of BHK-21 cells from virus-induced cytopathogenicity (MTT); assay type: cell-based, human coronavirus; conditions: for EC50: Human coronavirus 229E
Experimental: as §1
In an initial screening, BHK-21 cells acutely infected with a seasonal human alpha coronavirus, HCoV-229E, were exposed to serial dilutions of Compound 1A. […] No toxicity was detected from either drug.
as §3

in vitro [11] = conditions: human; remark: listed apart in the source
[12] = test system: HCoV-229E, HCoV-OC43, SARS-CoV-1 and SARS-CoV-2; assay: organism not typed; assay type: cell-based, human coronaviruses; conditions: read-out: individual EC90 values
in vitro [13] = conditions: human; remark: listed apart in the source

CNc1nc(N)nc2c1ncn2[C@@H]1O[C@H](CO[P@@](=O)(N[C@@H](C)C(=O)OC(C)C)Oc2ccccc2)[C@@H](O)[C@@]1(C)F [Compound 1A]
AUC(0-t) [1]: 0.44 µM·h | Cmax [1]: 640 nM | Tmax [1]: 30 to 60 min | half-life [1]: 44.4 min | EC50 (HCoV; Table 3A): 1.6 µM | EC50 (HCoV; Table 3B): 2 µM | Selectivity Index (CC50/EC90) (HCoV-229E [2]; HCoV-229E in Huh-7): >75 | EC50 (HCoV-229E [2]; Human coronavirus 229E, Huh-7, read-out: Neutral Red Assay EC50): 1.7 µM | EC50 (HCoV-229E [2]; Human coronavirus 229E, Huh-7, read-out: Neutral Red EC50): 1 µM | EC90 (HCoV-229E [2]; Human coronavirus 229E, Huh-7, read-out: VYR EC90): 0.71 µM | EC90 (HCoV-229E [2]; Human coronavirus 229E, Huh-7, read-out: Virus Yield Reduction Assay EC90): 1 µM | EC50 (HCoV-229E [2]; Human coronavirus 229E, Huh-7, read-out: Visual EC50): 1 µM | EC50 (HCoV-229E [2]; read-out: Neutral Red Assay EC50): 1.6 µM | EC50 (HCoV-229E [3]): > 100 µM | EC90 (HCoV-OC43 [4]): 0.29 µM | Neutral Red Assay CC50 (Huh-7 cells): >50^ μg/mL | CC50 at 3 days [5]: > 100 µM | CC50 [6]: > 100 µM | EC50 (HCoV-OC43 [7]; Betacoronavirus 1, OC43, RD, read-out: Neutral Red Assay EC50): 2.8 µM | EC90 (HCoV-OC43 [7]; Betacoronavirus 1, OC43, RD, read-out: Virus Yield Reduction Assay EC90): 2.2 µM | Selectivity Index (CC50/EC90) (HCoV-OC43 [7]; HCoV-OC43 in RD): >39 | EC90 (SARS-CoV-2 (WA1); Severe acute respiratory syndrome coronavirus 2, HAE, read-out: EC90 of the single replicates): 0.57 µM | EC90 (SARS-CoV-2 (WA1); Severe acute respiratory syndrome coronavirus 2, HAE, read-out: Virus Yield Reduction Assay EC90): 470 nM and 0.37 µg/mL | EC90 (SARS-CoV-2 (WA1); Severe acute respiratory syndrome coronavirus 2, HAE, read-out: average EC90): 0.54 µM | EC90 (SARS-CoV-2 (WA1); Severe acute respiratory syndrome coronavirus 2, HAE, read-out: replicate EC90 determinations): 0.33 µg/mL | EC90 (SARS-CoV-2 (WA1); read-out: Virus Yield Reduction Assay EC90): 0.51 µM and 0.64 µM | EC90 (SARS-CoV-2 (WA1); read-out: average EC90): 0.5 µM and ~0.55 µM | CC50 at 3 days ([8]; mock infected BHK-21 cells, mock infected BHK cells, MTT, 3 days, Table 2A): > 100 µM | CC50 at 3 days ([8]; uninfected BHK-21 cells, BHK-21, Table 5): > 100 µM | CC50 (mock infected BHK cells): > 100 µM | CC50 (in vitro [9]; Neutral Red Assay CC50): > 86 µM | CC50 (in vitro [9]; Neutral Red CC50): > 50 µM | CC50 (in vitro [9]; Visual CC50): > 50 µM | EC90 (MERS-CoV (EMC); Middle East respiratory syndrome-related coronavirus, Huh-7, read-out: average EC90, MERS-CoV in Huh-7): 36 µM | EC90 (MERS-CoV (EMC); read-out: average EC90, MERS-CoV in Huh-7): 37 µM | Selectivity Index (SARS-CoV (Urbani); CC50/EC90, SARS-CoV (Urbani) in Huh7 cells): >250 | EC90 (SARS-CoV (Urbani); Severe acute respiratory syndrome coronavirus, Huh-7, read-out: Virus Yield Reduction Assay EC90): 340 nM and 0.2 µg/mL | Selectivity Index (HCoV-229E [10]; CC50/EC50, HCoV-229E in BHK-21): >58^c | EC50 (HCoV-229E [10]; BHK, 72 h, 50% protection of BHK cells, MTT, day 3 post-infection, Table 2A, read-out: EC50): 1.6 µM | EC50 (HCoV-229E [10]; BHK, 72 h, 50% protection of BHK cells, MTT, day 3 post-infection, Table 2B, read-out: EC50): 2 µM | EC50 (HCoV-229E [10]; BHK-21, HCoV-229E in BHK-21, dye staining, average of 2 experiments, Table 5, read-out: EC50): 1.8 µM | EC50 (HCoV-229E [10]; BHK-21, HCoV-229E in BHK-21, the 2 experiments behind the average, read-out: EC50 of the single experiments): 1.6 µM | CC50 (in vitro [11]): > 50 µg/mL | EC90 [12]: 0.34 to 1.2 µM | CC50 (in vitro [13]): > 86 µM
